Experimental data: patent US10689414B2 (Agios Pharmaceuticals, Inc., priority 2013, dated 2020)

Tested on: U87MG cells
Experiment: Cellular assay, inhibition of 2-HG production in U87MG cells
Type: cell-based
Conditions: Homo sapiens, U-87 MG, 48 h
Summary of the method: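 HT1080 or U87MG cells (U87MG kept with 500 ug/mL G418) seeded at 5000 cells/well and treated with compound at 0.2% final DMSO. Incubated 48 h at 37 °C. 2-HG inhibition determined by LC-MS. Viability read by CellTiter-Glo luminescence at 72 h post-dose.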

| Structure (SMILES) | IC50 [nM] |
| --- | --- |
| CC(C)(C)OC(=O)N1CC(=O)N(c2nccc(C#N)n2)[C@H](C(=O)N(c2cc(F)cc(F)c2)[C@H](C(=O)NC2CCC(F)(F)CC2)c2ccccc2Cl)C1 [Compound 93, (S)-tert-Butyl 3-(((S)-1-(2-chlorophenyl)-2-((4,4-difluorocyclohexyl)amino)-2-oxoethyl)(3,5-difluorophenyl)carbamoyl)-4-(4-cyanopyrimidin-2-yl)-5-oxopiperazine-1-carboxylate] | < 100 |
| N#Cc1ccnc(N2C(=O)[C@H](O)C[C@H]2C(=O)N(c2cc(F)cc(F)c2)[C@@H](C(=O)NC2CCC(F)(F)CC2)c2ccccc2Cl)c1 [Compound 124, (2S,4R)—N—((R)-1-(2-Chlorophenyl)-2-(4,4-difluorocyclohexylamino)-2-oxoethyl)-1-(4-cyanopyridin-2-yl)-N-(3,5-difluorophenyl)-4-hydroxy-5-oxopyrrolidine-2-carboxamide] | < 100 |
| N#Cc1ccnc(N2C(=O)[C@H](O)C[C@H]2C(=O)N(c2cc(F)cc(F)c2)[C@@H](C(=O)NC2CC(F)(F)C2)c2ccccc2Cl)c1 [Compound 114, (2S,4R)—N—((R)-1-(2-Chlorophenyl)-2-((3,3-difluorocyclobutyl)amino)-2-oxoethyl)-1-(4-cyanopyridin-2-yl)-N-(3,5-difluorophenyl)-4-hydroxy-5-oxopyrrolidine-2-carboxamide] | < 100 |
| O=C(NC1CC(F)(F)C1)[C@H](c1ccccc1Cl)N(C(=O)[C@@H]1CCC(=O)N1c1cscn1)c1cccc(F)c1 [Compound 43, (S)—N—((S)-1-(2-Chlorophenyl)-2-(3,3-difluorocyclobutylamino)-2-oxoethyl)-N-(3-fluorophenyl)-5-oxo-1-(thiazol-4-yl)pyrrolidine-2-carboxamide] | < 100 |
| O=C(NC1CC(F)(F)C1)C(c1ccccc1Cl)N(C(=O)[C@@H]1CCCC(=O)N1c1ncccn1)c1cccc(F)c1 (stereo in doubt) [Compound 20, (S)—N—((R)-1-(2-Chloro-phenyl)-2-((3,3-difluorocyclobutyl)amino)-2-oxoethyl)-N-(3-fluoro-phenyl)-6-oxo-1-(pyrimidin-2-yl)piperidine-2-carboxamide] | 100 to 500 |
| N#Cc1ccnc(N2C(=O)CNC[C@H]2C(=O)N(c2cc(F)cc(F)c2)[C@H](C(=O)NC2CC(F)(F)C2)c2ccccc2Cl)c1 [Compound 100, (S)—N—((S)-1-(2-Chlorophenyl)-2-((3,3-difluorocyclobutyl)amino)-2-oxoethyl)-1-(4-cyanopyridin-2-yl)-N-(3,5-difluorophenyl)-6-oxopiperazine-2-carboxamide] | < 100 |
| O=C(NC1CCC(F)(F)CC1)[C@H](c1ccccc1Cl)N(C(=O)[C@@H]1CCC(=O)N1c1cnccn1)c1cccc(F)c1 [Compound 58, (S)—N—((S)-1-(2-Chlorophenyl)-2-(4,4-difluorocyclohexylamino)-2-oxoethyl)-N-(3-fluorophenyl)-5-oxo-1-(pyrazin-2-yl)pyrrolidine-2-carboxamide] | < 100 |
| CCOC(=O)CN1CC(=O)N(c2cc(C#N)ccn2)[C@H](C(=O)N(c2cc(F)cc(F)c2)[C@H](C(=O)NC2CC(F)(F)C2)c2ccccc2Cl)C1 [Compound 104] | < 100 |
| O=C(NC1CC(F)(F)C1)[C@H](c1ccccc1Cl)N(C(=O)[C@@H]1CCC(=O)N1c1nccs1)c1cccc(F)c1 [Compound 14] | 100 to 500 |
| N#Cc1ccnc(N2C(=O)N(CCO)C[C@H]2C(=O)N(c2cccc(F)c2)C(C(=O)NC2CC(F)(F)C2)c2ccccc2Cl)c1 (stereo partly drawn) [Compound 112, (4S)—N-(1-(2-Chlorophenyl)-2-(3,3-difluorocyclobutyl-amino)-2-oxoethyl)-3-(4-cyanopyridin-2-yl)-N-(3-fluorophenyl)-1-(2-hydroxyeth-yl)-2-oxoimidazolidine-4-carboxamide] | < 100 |

Other lines, results leading:

| IC50 [nM] | Structure (SMILES) |
| --- | --- |
| < 100 | N#Cc1cccc(N(C(=O)[C@@H]2CCC(=O)N2c2cc(C#N)ccn2)[C@H](C(=O)NC2CCC(F)(F)CC2)c2ccccc2Cl)c1 [Compound 166, (S)—N—((S)-1-(2-Chlorophenyl)-2-((4,4-difluorocyclohexyl)amino)-2-oxoethyl)-N-(3-cyanophenyl)-1-(4-cyanopyridin-2-yl)-5-oxopyrrolidine-2-carboxamide] |
| < 100 | N#Cc1ccnc(N2C(=O)OCC[C@H]2C(=O)N(c2cc(F)cc(F)c2)[C@H](C(=O)NC2CCC(F)(F)CC2)c2ccccc2Cl)n1 [Compound 144, (S)—N—((S)-1-(2-Chlorophenyl)-2-((4,4-difluorocyclohexyl)amino)-2-oxoethyl)-3-(4-cyanopyrimidin-2-yl)-N-(3,5-difluorophenyl)-2-oxo-1,3-oxazinane-4-carboxamide] |
| < 100 | N#Cc1ccnc(N2C(=O)[C@H](F)C[C@H]2C(=O)N(c2cccc(F)c2)[C@H](C(=O)NC2CCC(F)(F)CC2)c2ccccc2Cl)c1 [Compound 151, (2S,4R)—N—((S)-1-(2-Chlorophenyl)-2-((4,4-difluorocyclohexyl)amino)-2-oxoethyl)-1-(4-cyanopyridin-2-yl)-4-fluoro-N-(3-fluorophenyl)-5-oxopyrrolidine-2-carboxamide] |
| < 100 | CC(C)(O)c1cccc(N(C(=O)[C@@H]2CCC(=O)N2c2cc(C#N)ccn2)[C@H](C(=O)NC2CC(F)(F)C2)c2ccccc2Cl)c1 [Compound 179, (S)—N—((S)-1-(2C)-2-((3,3-difluorocyclobutyl)amino)-2-oxoethyl)-1-(4-cyanopyridin-2-yl)-N-(3-(2-hydroxypropan-2-yl)phenyl)-5-oxopyrrolidine-2-carboxamide] |
| < 100 | N#Cc1cccc(N(C(=O)[C@@H]2CCC(=O)N2c2cc(C#N)ccn2)[C@H](C(=O)NC2CC(F)(F)C2)c2ccccc2Cl)c1 [Compound 128, (S)—N—((S)-1-(2-Chlorophenyl)-2-((3,3-difluorocyclobutyl)amino)-2-oxoethyl)-N-(3-cyano-phenyl)-1-(4-cyanopyridin-2-yl)-5-oxopyrrolidine-2-carboxamide] |
| < 100 | N#Cc1ccnc(N2C(=O)CC[C@H]2C(=O)N(c2cc(F)cc(F)c2)[C@H](C(=O)NC2CC(F)(F)C2)c2ncccc2Cl)c1 [Compound 198, (S)—N—((S)-1-(3-Chloropyridin-2-yl)-2-(3,3-difluorocyclobutylamino)-2-oxoethyl)-1-(4-cyanopyridin-2-yl)-N-(3,5-difluorophenyl)-5-oxopyrrolidine-2-carboxamide] |
| < 100 | N#Cc1ccnc(N2C(=O)OC[C@H]2C(=O)N(c2cncc(F)c2)[C@H](C(=O)NC2CC(F)(F)C2)c2ccccc2Cl)c1 [Compound 135, (S)—N—((S)-1-(2-Chlorophenyl)-2-((3,3-difluorocyclobutyl)amino)-2-oxoethyl)-3-(4-cyanopyri-din-2-yl)-N-(5-fluoropyridin-3-yl)-2-oxooxazolidine-4-carboxamide] |
| < 100 | N#Cc1ccnc(N2C(=O)CC[C@H]2C(=O)N(c2cncc(F)c2)[C@H](C(=O)NC2CC(F)(F)C2)c2ccccc2)c1 [Compound 147, (S)-1-(4-Cyanopyridin-2-yl)-N—((S)-2-((3,3-difluorocyclobutyl)amino)-2-oxo-1-phenylethyl)-N-(5-fluoropyridin-3-yl)-5-oxopyrrolidine-2-carboxamide] |
| < 100 | N#Cc1ccnc(N2C(=O)CC[C@H]2C(=O)N(c2cccc(F)c2)[C@H](C(=O)NC2CC(F)(F)C2)c2ccccc2)c1 [Compound 138, (S)-1-(4-Cyanopyridin-2-yl)-N—((S)-2-((3,3-difluorocyclobutyl)amino)-2-oxo-1-phenylethyl)-N-(3-fluorophenyl)-5-oxopyrrolidine-2-carboxamide] |
| < 100 | N#Cc1ccnc(N2C(=O)[C@H](O)C[C@H]2C(=O)N(c2cc(F)cc(F)c2)[C@H](C(=O)NC2CCC(F)(F)CC2)c2ccccc2Cl)c1 [Compound 125, (2S,4R)—N—((S)-1-(2-Chlorophenyl)-2-(4,4-difluorocyclohexylamino)-2-oxoethyl)-1-(4-cyanopyridin-2-yl)-N-(3,5-difluorophenyl)-4-hydroxy-5-oxopyrrolidine-2-carboxamide] |
| < 100 | N#Cc1cc(C#N)cc(N(C(=O)[C@@H]2CCC(=O)N2c2cc(C#N)ccn2)C(C(=O)NC2CC(F)(F)C2)c2ccccc2Cl)c1 (stereo partly drawn) [Compound 191, (2S)—N-(1-(2-Chlorophenyl)-2-((3,3-difluorocyclobutyl)amino)-2-oxoethyl)-1-(4-cyanopyridin-2-yl)-N-(3,5-dicyanophenyl)-5-oxopyrrolidine-2-carboxamide] |
| < 100 | N#Cc1ccnc(N2C(=O)[C@@H](O)C[C@H]2C(=O)N(c2cccc(F)c2)[C@H](C(=O)NC2CCC(F)(F)CC2)c2ccccc2Cl)n1 [Compound 189, (2S,4S)—N—((S)-1-(2-Chlorophenyl)-2-((4,4-difluorocyclohexyl)amino)-2-oxoethyl)-1-(4-cyanopyrimidin-2-yl)-N-(3-fluorophenyl)-4-hydroxy-5-oxopyrrolidine-2-carboxamide] |
| < 100 | N#Cc1ccnc(N2C(=O)CC[C@H]2C(=O)N(c2cc(F)cc(C3CC3)c2)[C@H](C(=O)NC2CC(F)(F)C2)c2ccccc2Cl)c1 [Compound 204, (S)—N—((S)-1-(2-Chlorophenyl)-2-((3,3-difluorocyclobutyl)amino)-2-oxoethyl)-1-(4-cyanopyri-din-2-yl)-N-(3-cyclopropyl-5-fluorophenyl)-5-oxopyrrolidine-2-carboxamide] |
| < 100 | N#Cc1cnc(N2C(=O)CC[C@H]2C(=O)N(c2cc(F)cc(F)c2)[C@H](C(=O)NC2CC(F)(F)C2)c2ccccc2Cl)o1 [Compound 162, (S)—N—((S)-1-(2-chlorophenyl)-2-((3,3-difluorocyclobutyl)amino)-2-oxoethyl)-1-(5-cyanooxa-zol-2-yl)-N-(3,5-difluorophenyl)-5-oxopyrrolidine-2-carboxamide] |
| < 100 | N#Cc1ccnc(N2C(=O)OCC[C@H]2C(=O)N(c2cncc(F)c2)[C@H](C(=O)NC2CC(F)(F)C2)c2ccccc2Cl)c1 [Compound 143, (S)—N—((S)-1-(2-Chlorophenyl)-2-((3,3-difluorocyclobutyl)amino)-2-oxoethyl)-3-(4-cyanopyridin-2-yl)-N-(5-fluoropyridin-3-yl)-2-oxo-1,3-oxazinane-4-carboxamide] |
